Reference: the supplement of paper PMC10307832

How the values were obtained:
Experiment in all cases: relative viability (nuclei count vs DMSO), 5 days (fraction); higher = more cells survive
Gemcitabine + Navitoclax = compound: Nc1ccn([C@@H]2O[C@H](CO)[C@@H](O)C2(F)F)c(=O)n1 [Gemcitabine] + CC1(C)CCC(c2ccc(Cl)cc2)=C(CN2CCN(c3ccc(C(=O)NS(=O)(=O)c4ccc(N[C@H](CCN5CCOCC5)CSc5ccccc5)c(S(=O)(=O)C(F)(F)F)c4)cc3)CC2)C1 [Navitoclax] (partner 0.5 µM)
Outline: (§1)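 Each reported value is a median over duplicate plates. It expresses relative viability: treated-well nuclei count divided by vehicle-well nuclei count. Lung cancer cell lines in 1536-well plates were dosed by pin tool a day after seeding, alone with one drug or with a fixed anchor-drug dose plus five library-drug doses (not always all listed) in √10 steps, and nuclei were counted after 5 days.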

Gemcitabine + Crizotinib = compound: Nc1ccn([C@@H]2O[C@H](CO)[C@@H](O)C2(F)F)c(=O)n1 [Gemcitabine] + C[C@@H](Oc1cc(-c2cnn(C3CCNCC3)c2)cnc1N)c1c(Cl)ccc(F)c1Cl [Crizotinib] (partner 1 µM)
Outline: as §1

Gemcitabine + Dasatinib = compound: Nc1ccn([C@@H]2O[C@H](CO)[C@@H](O)C2(F)F)c(=O)n1 [Gemcitabine] + Cc1nc(Nc2ncc(C(=O)Nc3c(C)cccc3Cl)s2)cc(N2CCN(CCO)CC2)n1 [Dasatinib] (partner 0.075 µM)
Outline: as §1

Gemcitabine + Vorinostat = compound: Nc1ccn([C@@H]2O[C@H](CO)[C@@H](O)C2(F)F)c(=O)n1 [Gemcitabine] + O=C(CCCCCCC(=O)Nc1ccccc1)NO [Vorinostat] (partner 1 µM)
Outline: as §1

Row | Cell Line | relative viability (Gemcitabine + Navitoclax; first compound 0.001 µM) | relative viability (Gemcitabine + Navitoclax; first compound 0.003162 µM) | relative viability (Gemcitabine + Navitoclax; first compound 0.01 µM) | relative viability (Gemcitabine + Navitoclax; first compound 0.03162 µM) | relative viability (Gemcitabine + Navitoclax; first compound 0.1 µM) | relative viability (Gemcitabine + Crizotinib; first compound 0.001 µM) | relative viability (Gemcitabine + Crizotinib; first compound 0.003162 µM) | relative viability (Gemcitabine + Crizotinib; first compound 0.01 µM) | relative viability (Gemcitabine + Crizotinib; first compound 0.03162 µM) | relative viability (Gemcitabine + Crizotinib; first compound 0.1 µM) | relative viability (Gemcitabine + Dasatinib; first compound 0.001 µM) | relative viability (Gemcitabine + Dasatinib; first compound 0.003162 µM) | relative viability (Gemcitabine + Dasatinib; first compound 0.01 µM) | relative viability (Gemcitabine + Dasatinib; first compound 0.03162 µM) | relative viability (Gemcitabine + Dasatinib; first compound 0.1 µM) | relative viability (Gemcitabine + Vorinostat; first compound 0.001 µM) | relative viability (Gemcitabine + Vorinostat; first compound 0.003162 µM) | relative viability (Gemcitabine + Vorinostat; first compound 0.01 µM) | relative viability (Gemcitabine + Vorinostat; first compound 0.03162 µM) | relative viability (Gemcitabine + Vorinostat; first compound 0.1 µM)
1 | SK-MES-1 | 0.929 | 0.723 | 0.158 | 0.0905 | 0.077 | 0.923 | 0.809 | 0.221 | 0.179 | 0.164 | 0.297 | 0.171 | 0.116 | 0.119 | 0.114 | 0.839 | 0.254 | 0.181 | 0.185 | 0.178
2 | NCI-H1666 | 0.872 | 0.836 | 0.393 | 0.281 | 0.275 | 0.959 | 1.16 | 0.596 | 0.321 | 0.268 | 0.797 | 0.796 | 0.715 | 0.52 | 0.375 | 1.02 | 0.955 | 0.963 | 0.927 | 0.576
3 | NCI-H1355 | 0.937 | 0.461 | 0.168 | 0.109 | 0.112 | 0.996 | 0.706 | 0.193 | 0.158 | 0.141 | 0.813 | 0.695 | 0.226 | 0.196 | 0.143 | 0.632 | 0.473 | 0.274 | 0.166 | 0.146
4 | HCC-827 | 0.967 | 0.815 | 0.557 | 0.357 | 0.224 | 0.886 | 0.674 | 0.572 | 0.387 | 0.214 | 0.295 | 0.226 | 0.319 | 0.253 | 0.186 | 0.883 | 0.806 | 0.426 | 0.19 | 0.179
5 | HARA | 1.15 | 1.17 | 1.1 | 0.289 | 0.0674 | 0.975 | 1.02 | 1.02 | 0.3 | 0.124 | 0.244 | 0.331 | 0.241 | 0.228 | 0.0727 | 0.497 | 0.538 | 0.444 | 0.0835 | 0.0515
6 | HCC-366 | 1.03 | 1.01 | 0.656 | 0.014 | 0.0109 | 0.629 | 0.588 | 0.0778 | 0.0184 | 0.0078 | 0.633 | 0.637 | 0.155 | 0.0301 | 0.0176 | 0.361 | 0.458 | 0.134 | 0.0306 | 0.0198
7 | NCI-H322M | 0.96 | 0.52 | 0.286 | 0.207 | 0.228 | 0.85 | 0.357 | 0.269 | 0.219 | 0.212 | 0.295 | 0.241 | 0.28 | 0.274 | 0.252 | 0.864 | 0.408 | 0.337 | 0.384 | 0.44
8 | NCI-H2347 | 0.86 | 0.64 | 0.639 | 0.334 | 0.206 | 0.756 | 0.704 | 0.623 | 0.452 | 0.477 | 0.291 | 0.304 | 0.257 | 0.22 | 0.195 | 0.584 | 0.453 | 0.507 | 0.327 | 0.281
